From US20060009425A1, “Oral formulations of paricalcitol” (priority 2004, published 2006)
Read-outs that look alike come from different tables or passages of the source.

Experiments:
[1] = tested on: iPTH; assay: Combined Phase 3 studies, iPTH reduction (Examples 11, 12); type: in vivo, human; settings: for iPTH, Mean Change from Baseline (SE) / iPTH, Mean Percent Change from Baseline (SE): last on-treatment
Protocol: In this example, three double-blind, placebo-controlled, multicenter studies were conducted to evaluate the safety and efficacy of paricalcitol capsule in CKD stage 3-4 subjects. Major inclusion included eGFR (MDRD formula) 15-60 mL/min/1.73 m^2, iPTH ≧150 pg/mL. A total of 220 subjects across the 3 studies were randomized and received paricalcitol capsule or placebo three times weekly (TIW, N=145) or daily (QD, N=75) for 24 weeks. […] The initial dose was 2 mcg (TIW) or 1 mcg (QD) for baseline iPTH ≦500 pg/mL and 4 mcg (TIW) or 2 mcg (QD) for baseline iPTH >500 pg/mL. Doses were titrated based on serum Ca, P and iPTH results that were measured every 2 weeks, dose increases occurred every 4 weeks.
(§1) In this example, paricalcitol capsules were evaluated in 3 double-blind, placebo-controlled multicenter studies in CKD stage 3-4 subjects with 2° HPT; 2 of these studies were conducted with TIW dosing and 1 was done with QD dosing. Subjects with eGFR (MDRD formula) 15-60 ml/min/1.73 m^2, iPTH ≧150 pg/mL, serum Ca 8.0-10.0 mg/dL and PO4≦5.2 mg/dL were randomized 1:1 and treated with paricalcitol capsule or placebo for 24 weeks. A total of 145 subjects used TIW regimen (paricalcitol: 72; placebo: 73) and 75 subjects (paricalcitol: 35; placebo: 40) used QD regimen. After the initial doses, doses were titrated based on serum Ca, P and iPTH results that were measured every 2 weeks; dose increases occurred once every 4 weeks and decreases every 2 weeks. Dosing administrations are shown below in Table 18.

[2] = human, in vivo, 24 weeks
Protocol: Additionally, safety was assessed by the incidence of adverse events, the change from baseline in chemistry, hematology and urinalysis laboratory variables, the change from baseline in subject vital signs, and progressive changes in renal function observed via changes in eGFR.
All randomized subjects who received at least 1 dose of study drug were used in safety analyses. […] This comparison was performed using a Fisher's exact test. Secondary safety analyses were performed comparing changes/percent changes from baseline between the paricalcitol and placebo treatment groups using a one-way ANOVA with treatment group as the factor for the following variables: hematology, complete chemistry, and urinalysis variables; 24-hour urine collections, eGFR, urinary calcium/creatinine ratio, cardiovascular markers, and vital signs. Secondary safety analyses also consisted of an analysis of “treatment-emergent” adverse events (i.e., adverse events with an onset date on or after the date the first dose of study drug was taken). Adverse events were summarized by body system and COSTART term according to the COSTART V adverse event-coding dictionary. Comparisons of the percentage of subjects experiencing an adverse event between the paricalcitol and placebo treatment groups were performed using a Fisher's exact test.

[3] = Combined Phase 3 studies, safety (Examples 10-12); type: in vivo, human
Protocol: As discussed previously, Vitamin D deficiency is common in early stage CKD and is a major factor in the development of 2° HPT. However, few nephrologists prescribe calcitriol due to concerns of its calcemic, phosphatemic and calciuric effects and potential adverse effect on kidney function. In this example, a study was conducted that evaluated the safety of paricalcitol capsule in CKD stage 3-4 subjects with 2° HPT in 3 double-blind, placebo-controlled multicenter studies. A total of 220 subjects with iPTH ≧150 pg/mL, serum Ca 8-10 mg/dL and P≦5.2 mg/dL were randomized 1:1 and treated with paricalcitol capsule (N=107) or placebo (N=113) three times per week or daily for 24 weeks. Initial doses were based on iPTH levels at baseline (iPTH <500 pg/mL: 2 mcg TIW or 1 mcg QD; iPTH ≧500 pg/mL: 4 mcg TIW or 2 mcg QD). Subsequent dose adjustments (TIW: 2 mcg, QD: 1 mcg) were based on biweekly Ca, P and iPTH results, dose increases occurred every 4 weeks.
In this example, three double-blind, placebo-controlled, multicenter studies were conducted to evaluate the safety and efficacy of paricalcitol capsule in CKD stage 3-4 subjects. Major inclusion included eGFR (MDRD formula) 15-60 mL/min/1.73 m^2, iPTH ≧150 pg/mL. A total of 220 subjects across the 3 studies were randomized and received paricalcitol capsule or placebo three times weekly (TIW, N=145) or daily (QD, N=75) for 24 weeks. Mean baseline eGFR was 23.90 mL/min/1.73 m^2 in the paricalcitol group and 23.44 mL/min/1.73 m^2 in the placebo group. The initial dose was 2 mcg (TIW) or 1 mcg (QD) for baseline iPTH ≦500 pg/mL and 4 mcg (TIW) or 2 mcg (QD) for baseline iPTH >500 pg/mL. Doses were titrated based on serum Ca, P and iPTH results that were measured every 2 weeks, dose increases occurred every 4 weeks.
as §1

[4] = Bioavailability of capsule vs intravenous formulation, end-stage CKD on continuous peritoneal dialysis (Example 9); type: in vivo; settings: human, plasma, 0.24 μg/kg; for half-life: CPD, read-out: harmonic mean of the terminal elimination half-life (converted)
Protocol: Methodology: This was a Phase I, open-label, randomized, single-dose, two-period, crossover, nonfasting study. Subjects were randomized into two sequence groups of
Formulations A and B. The two nonfasting study administrations were: […]
The strengths of the capsule formulations were 0.5, 1, 2 or 4 μg.
The intravenous formulation contained 2-10 micrograms/milliliter of paricalcitol, 30% (v/v) propylene glycol, 20% (v/v) ethanol and 50% (v/v) water.
Both formulations were administered immediately after CPD exchange in the morning, 30 minutes after breakfast was served. Phosphate binders, commonly used in the management of end-stage renal disease, were withheld 8 hours prior to and 2 hours after the drug administration. A washout interval of at least 7 days separated the doses of the two study periods.
Plasma concentrations of paricalcitol were determined using a validated HPLC-tandem mass spectrometric assay method at Abbott Laboratories, Abbott Park, Ill. The lower limit of quantitation of paricalcitol was 0.02 ng/mL using 0.6 mL of plasma.
Pharmacokinetic: The pharmacokinetic parameter values of paricalcitol were estimated using noncompartmental methods. These included: Cmax, t1/2, AUC0-t, AUC0-∞, CL, CL/F, Tmax, Vdβ and Vdβ/F, as described in the last example.
Statistical Methods: An analysis of variance (ANOVA) was performed for β and the logarithms of Cmax, AUC0-t and AUC0-∞. […] The number and percentage of subjects reporting adverse events were tabulated by COSTART term and body system. Laboratory values outside the reference ranges were flagged and evaluated for clinical significance.

[5] = 3 Phase 3 studies, TIW or daily for 24 weeks, CKD stage 3-4
[6] = N = 106, 3 Phase 3 studies combined
[7] = subjects who completed 24 weeks of treatment

C[C@H](/C=C/[C@H](C)C(C)(C)O)[C@H]1CC[C@H]2/C(=C/C=C3C[C@@H](O)C[C@H](O)C3)CCC[C@]12C [Paricalcitol, 19-nor-1α,3β,25-trihydroxy-9,10-secoergosta-5(Z); 7(E),22(E)-triene]
30% mean iPTH reduction by ([1]; 3 Phase 3 studies combined): ≤ 9 Week
efficacy in PTH suppression ([1]; 24-week pivotal Phase 3 studies, CKD Stage 3 and 4 with 2° HPT): > 90%
subjects with 2 consecutive 30% decreases in iPTH ([1]; 92/101, 3 Phase 3 studies combined): 91%
2 consecutive 30% iPTH reduction from baseline, subjects n (%) ([1]; N = 101, 3 Phase 3 studies combined): 92 (91%)
iPTH, Mean Last On-Treatment Value ([1]; QD Regimen, N = 35): 128 pg/mL
iPTH, Mean Change from Baseline (SE) ([1]; QD Regimen): −131 (16.7) pg/mL
iPTH, Mean Percent Change from Baseline (SE) ([1]; QD Regimen): −50% (5.0)
2 consecutive 30% iPTH reduction from baseline ([1]; QD regimen): 91%
30% mean iPTH reduction by ([1]; QD regimen): ≤ 7 Week
2 consecutive 30% iPTH reduction from baseline ([1]; QD regimen, listed as paricalcitol): 91%
iPTH, Mean Last On-Treatment Value ([1]; TIW Regimen, N = 69): 179 pg/mL
iPTH, Mean Change from Baseline (SE) ([1]; TIW Regimen): −90 (10.7) pg/mL
iPTH, Mean Percent Change from Baseline (SE) ([1]; TIW Regimen): −33% (3.6)
2 consecutive 30% iPTH reduction from baseline ([1]; TIW regimen): 91%
30% mean iPTH reduction by ([1]; TIW regimen): ≤ 9 Week
2 consecutive 30% iPTH reduction from baseline ([1]; TIW regimen, listed as paricalcitol): 91%
adverse event incidence: viral infection [2]: 10%
subjects who experienced hypercalcemia (2 consecutive Ca >10.5 mg/dL) ([3]; 2/106, 3 Phase 3 studies combined): 2%
adverse event incidence: pharyngitis ([3]; 3 Phase 3 studies combined): 10%
treatment-emergent adverse events reporting ([3]; 3 Phase 3 studies combined): 82%
Urine Calcium, Mean Change from Baseline (SE) [3, 5]: 2.4 (3.04) mg/24 hours
Urine Calcium, Mean Final Value [3, 5]: 42.0 mg/24 hours
Urine Phosphorous, Mean Change from Baseline (SE) [3, 5]: −2.1 (39.72) mg/24 hours
Urine Phosphorous, Mean Final Value [3, 5]: 670.4 mg/24 hours
safety and tolerability ([3]; CKD stage 3-4 subjects, 3 Phase 3 studies): safe and well tolerated
Elevated Ca × P (2 consecutive Ca × P > 55 mg^2/dL^2), subjects n (%) [3, 6]: 13 (12%)
Hypercalcemia (2 consecutive Ca > 10.5 mg/dL), subjects n (%) [3, 6]: 2 (2%)
Hyperphosphatemia (2 consecutive P > 5.5 mg/dL), subjects n (%) [3, 6]: 11 (10%)
Elevated Ca × P (2 consecutive Ca × P > 55 mg^2/dL^2), subjects n (%) ([3]; QD regimen): 5 (14%)
Hypercalcemia (2 consecutive Ca > 10.5 mg/dL), subjects n (%) ([3]; QD regimen): 0 (%)
Hyperphosphatemia (2 consecutive P > 5.5 mg/dL), subjects n (%) ([3]; QD regimen): 5 (14%)
Elevated Ca × P (2 consecutive Ca × P > 55 mg^2/dL^2), subjects n (%) ([3]; TIW regimen): 8 (12%)
Hypercalcemia (2 consecutive Ca > 10.5 mg/dL), subjects n (%) ([3]; TIW regimen): 2 (3%)
Hyperphosphatemia (2 consecutive P > 5.5 mg/dL), subjects n (%) ([3]; TIW regimen): 6 (9%)
eGFR (MDRD formula), Mean Change from Baseline [3, 7]: −2.5 (0.526) mL/min/1.73 m^2
eGFR (MDRD formula), Mean Final Value [3, 7]: 21.4 mL/min/1.73 m^2
eGFR (MDRD formula), Mean Percent Change from Baseline (SE) [3, 7]: −10.4 (2.268)
half-life ([4]; following intravenous administration): ~15 h
half-life ([4]; following oral administration): ~18 h
bioavailability ([4]; single oral dose of capsule formulation, end-stage renal disease on CPD, read-out: absolute bioavailability): 86.1%
